US12194040B2, “FAK inhibitor and drug combination thereof” (HINOVA PHARMACEUTICALS INC., priority 2018, dated 2025)

Legend:
[1] = Pharmacokinetic test in rats (PO, 10 mpk); assay type: in vivo; conditions: male SD rats, PO (gavage), plasma
Description: An appropriate amount of test drug (10 mg) was accurately weighed, and 0.25 ml of N,N-dimethylacetamide (DMA) was first added to dissolve it, then 0.5% sodium carboxymethyl cellulose (CMC-Na) was slowly added to 5 ml. The mixture was sonicated, vortexed, and mixed well. 0.2 ml of the final solution prepared above was taken out and stored at −20° C. for the concentration determination.
After fasted overnight (free drinking water), three healthy adult male SD rats (180-250 g, purchased from Chengdu Dossy Experimental Animal Co., Ltd.) were administered by gavaging with a volume of 5 ml/kg; Prior to administration, as well as 0.5 h, 1 h, 2 h, 4 h, 6 h, 8 h, 12 h, 24 h after administration, 0.1 ml of blood was collected from the retroorbital venous plexus, centrifuged at 4° C. for 5 min to separate the plasma, and stored at −20° C. for testing. Then, LC/MS/MS method was used to determine the concentration of the test compound in the plasma.

MC38 tumor model = assay: Pharmacodynamic experiment on MC38 tumor animal model; assay type: in vivo, C57BL/6 mice; conditions: MC38, group 4: compound 44 50 mg/kg p.o. QD × 21; day 18
Description: Cell culture: MC-38 cells are cultured in DMEM medium containing 10% fetal bovine serum (FBS). MC-38 cells in logarithmic growth phase were collected, and resuspended in HBSS to a concentration suitable for subcutaneous tumor inoculation in C57BL/6 mice.
Experimental animals: C57BL/6 mice, female, 6-8 weeks old, weighing about 18-20 g, 96 mice, purchased from Beijing Vital River Experimental Animal Technology Co., Ltd.
Tumor cell inoculation: Tumor cells in logarithmic growth phase were collected, and the cell concentration was adjusted to 5×10^6/mL with HBSS, then 0.1 mL was subcutaneously inoculated on the right side of each mouse near the back, that is, 5×10^5/mouse. Then, the tumor volume was observed and measured. When the average tumor volume of the mice grew to 50-100 mm^3, the tumor-bearing mice were randomly grouped according to the tumor volume and administered. The detailed information was shown in Table 3, and the day of grouping and administration was defined as day 0.
Calculation of tumor volume: The mice were sacrificed on the 18th day, the tumor was taken out, the tumor volume was measured, and the tumor inhibition rate of each group was calculated.

PAN-02 tumor model = assay: Pharmacodynamic experiment on PAN02 tumor animal model; assay type: in vivo, C57BL/6 mice; conditions: PAN-02, group 4: compound 44 25 mg/kg i.g. BID; 33 days
Description: The PAN-02 cells in the logarithmic growth phase were collected, washed twice with PBS, and then resuspended in pre-cooled PBS for inoculation. The experimental animals were C57BL/6 mice, females, purchased from Beijing Vital River Experimental Animal Technology Co., Ltd. C57BL/6 mice were adapted to the laboratory environment for 3 days. PAN-02 cells were subcutaneously inoculated into the right ribs, and the amount of cells inoculated was 1×10^6/mouse. When the tumor grew to about 100 mm^3, they will be screened and randomly grouped. Each group included 8 mice. According to Table 4, mice were grouped and administrated as the dosing regimen. The day of grouping and administration was defined as day 1, and the administration period was 33 days.

FAK enzyme = FAK enzyme (Homo sapiens, UniProt Q05397); assay: Inhibitory activity on FAK enzyme (HTRF, Sa-XL665 / TK antibody-Eu3+); assay type: biochemical
Sequence of FAK enzyme (Q05397 whole entry, species assumed): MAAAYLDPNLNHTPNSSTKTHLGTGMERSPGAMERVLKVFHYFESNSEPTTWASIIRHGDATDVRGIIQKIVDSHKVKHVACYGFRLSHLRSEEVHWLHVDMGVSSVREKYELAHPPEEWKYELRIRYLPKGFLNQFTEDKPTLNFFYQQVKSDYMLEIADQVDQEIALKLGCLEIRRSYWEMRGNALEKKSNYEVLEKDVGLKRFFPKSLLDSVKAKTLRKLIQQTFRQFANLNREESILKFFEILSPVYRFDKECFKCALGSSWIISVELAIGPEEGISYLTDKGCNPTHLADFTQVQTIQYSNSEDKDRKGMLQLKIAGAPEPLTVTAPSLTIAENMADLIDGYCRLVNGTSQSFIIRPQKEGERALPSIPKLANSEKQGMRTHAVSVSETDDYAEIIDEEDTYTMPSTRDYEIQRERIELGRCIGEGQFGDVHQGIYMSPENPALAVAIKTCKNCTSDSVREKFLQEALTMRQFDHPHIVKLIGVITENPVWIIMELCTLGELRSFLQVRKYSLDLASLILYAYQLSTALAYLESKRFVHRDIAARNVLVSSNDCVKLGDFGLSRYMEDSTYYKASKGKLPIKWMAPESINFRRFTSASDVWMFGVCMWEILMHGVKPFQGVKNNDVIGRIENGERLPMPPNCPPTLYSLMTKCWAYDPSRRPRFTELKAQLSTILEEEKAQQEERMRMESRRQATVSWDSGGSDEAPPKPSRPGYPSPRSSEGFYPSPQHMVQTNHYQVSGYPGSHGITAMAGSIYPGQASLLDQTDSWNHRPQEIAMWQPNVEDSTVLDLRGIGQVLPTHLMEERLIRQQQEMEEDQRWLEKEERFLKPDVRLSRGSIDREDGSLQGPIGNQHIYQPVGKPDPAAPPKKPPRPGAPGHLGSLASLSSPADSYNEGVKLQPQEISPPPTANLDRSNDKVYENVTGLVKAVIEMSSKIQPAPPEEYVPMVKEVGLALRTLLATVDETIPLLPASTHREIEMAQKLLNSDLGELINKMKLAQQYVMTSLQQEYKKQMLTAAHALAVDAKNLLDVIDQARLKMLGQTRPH
Description: By referring to literature methods (Cancer Res. 2008, 68, 1935), the experiment of inhibitory activity on FAX enzyme was carried out. The details are as follows: the test compound was diluted to 1000 nM, and then subjected to 1:3 serial dilution with DMSO. 0.1 L of the solution was transferred into a 384-well plate, and 2 replicate wells were set up for each concentration. 5 µL of 2 FAK enzyme solution was added, then centrifuged at 1000 rpm for 1 min, and incubated at 25° C. for 15 min. 5 L of 2× substrate solution was added and incubate at 25° C. for 60 min. Then, 5 µL of Sa-XL665 solution and 5 μL of TK antibody-Eu3+ were added, and centrifuged at 1000 rpm for 1 min, then incubated at 25° C. for 60 min. Finally, Envision 2104 plate reader was used to read the fluorescence signal, and calculate the half inhibitory concentration IC50 of each compound on FAX enzyme.

For `[2H]C([2H])([2H])NC(=O)c1ccc(Nc2ncc(C(F)(F)F)c(NCc3nccnc3N(C)S(C)(=O)=O)n2)cc1` [Compound 25, N-trideuteromethyl-4-((4-(((3-(N-methanesulfonamido)pyrazin-2-yl)methyl)amino)-5-(trifluoromethyl)pyrimidin-2-yl)amino)benzamide], the “half life t1/2” value [1] was 1.75 h.
In the case of `[2H]C([2H])([2H])NC(=O)c1ccc(Nc2ncc(C(F)(F)F)c(NCc3nccnc3N(C([2H])([2H])[2H])S(C)(=O)=O)n2)cc1` [Compound 44, N-trideuteromethyl-4-((4-(((3-(N-trideuteromethylmethanesulfonamido)pyrazin-2-yl)methyl)amino)-5-(trifluoromethyl)pyrimidin-2-yl)amino)benzamide], the Tumor inhibition rate (MC38 tumor model) is reported as 26.9% and the Tumor inhibition rate (PAN-02 tumor model) is reported as 66%.
Work on “N-deuteromethyl-4-((4-(((3-(N-deuteromethanesulfonamido) pyrazin-2-yl)deuteromethyl)amino)-5-(trifluoromethyl)pyrimidine-2-yl)amino)benzamide [Compound 45]” yielded an IC50 (FAK enzyme) of 0.15 nM.
